Source: ChEMBL document CHEMBL1201862, “PubChem BioAssay data set” (2004)
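Test compounds were applied to cells in 96-well plates for 48 hours at 5 doses. At the GI50, growth is halved.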 The source made the active and inactive calls. No stated cut-off is given here; in the data, active = GI50 up to about 1.1 µM and inactive = higher.

How the values were obtained:
Assay in all cases: growth of human tumour cells (NCI), 48 h
NCI-H23 = system: NCI-H23
SW-620 = system: SW-620
MDA-MB-435 = system: MDA-MB-435
SK-MEL-2 = system: SK-MEL-2
HL-60 = system: HL-60
HT-29 = system: HT-29
HOP-62 = system: HOP-62
A549 = system: A549
NCI/ADR-RES = system: NCI/ADR-RES
OVCAR-3 = system: OVCAR-3
COLO 205 = system: COLO 205
UACC-257 = system: UACC-257
TK-10 = system: TK-10
EKVX = system: EKVX
SK-MEL-5 = system: SK-MEL-5
OVCAR-5 = system: OVCAR-5
U-251 = system: U-251
SK-MEL-28 = system: SK-MEL-28
786-0 = system: 786-0
NCI-H460 = system: NCI-H460
M14 = system: M14
SF-539 = system: SF-539
NCI-H522 = system: NCI-H522
IGROV-1 = system: IGROV-1
OVCAR-4 = system: OVCAR-4
SN12C = system: SN12C
OVCAR-8 = system: OVCAR-8
SF-295 = system: SF-295
A498 = system: A498
UO-31 = system: UO-31
MCF7 = system: MCF7
HCT-15 = system: HCT-15
MOLT-4 = system: MOLT-4
CCRF-CEM = system: CCRF-CEM
CAKI-1 = system: CAKI-1
SNB-19 = system: SNB-19
ACHN = system: ACHN
T47D = system: T47D
RXF 393 = system: RXF 393
K562 = system: K562
DU-145 = system: DU-145
HOP-92 = system: HOP-92
BT-549 = system: BT-549
SF-268 = system: SF-268
Hs-578T = system: Hs-578T
HCT-116 = system: HCT-116
PC-3 = system: PC-3
SK-OV-3 = system: SK-OV-3
SNB-75 = system: SNB-75
HCC 2998 = system: HCC 2998
Malme-3M = system: Malme-3M
KM12 = system: KM12

Structure (SMILES): COc1ccc(Oc2cccc(/C=C3/C(=O)Nc4ccccc43)c2)cc1
- GI50 (NCI-H23): 3.23 µM (inactive)
- GI50 (SW-620): 11.1 µM (inactive)
- GI50 (MDA-MB-435): 3.58 µM (inactive)
- GI50 (SK-MEL-2): 11.1 µM (inactive)
- GI50 (HL-60): 3.05 µM (inactive)
- GI50 (HT-29): 3.73 µM (inactive)
- GI50 (HOP-62): 14.8 µM (inactive)
- GI50 (A549): 7.19 µM (inactive)
- GI50 (NCI/ADR-RES): 4.91 µM (inactive)
- GI50 (OVCAR-3): 7.89 µM (inactive)
- GI50 (COLO 205): 3.73 µM (inactive)
- GI50 (UACC-257): 5.79 µM (inactive)
- GI50 (TK-10): 15.2 µM (inactive)
- GI50 (EKVX): 10.9 µM (inactive)
- GI50 (SK-MEL-5): 2.62 µM (inactive)
- GI50 (OVCAR-5): 17.7 µM (inactive)
- GI50 (U-251): 1.91 µM (inactive)
- GI50 (SK-MEL-28): 7.06 µM (inactive)
- GI50 (786-0): 11.8 µM (inactive)
- GI50 (NCI-H460): 11.3 µM (inactive)
- GI50 (M14): 11.9 µM (inactive)
- GI50 (SF-539): 18.9 µM (inactive)
- GI50 (NCI-H522): 6.61 µM (inactive)
- GI50 (IGROV-1): 7.91 µM (inactive)
- GI50 (OVCAR-4): 14 µM (inactive)
- GI50 (SN12C): 10.9 µM (inactive)
- GI50 (OVCAR-8): 16.9 µM (inactive)
- GI50 (SF-295): 7.01 µM (inactive)
- GI50 (A498): 12.2 µM (inactive)
- GI50 (UO-31): 6.82 µM (inactive)
- GI50 (MCF7): 3.41 µM (inactive)
- GI50 (HCT-15): 10.2 µM
- GI50 (MOLT-4): 4 µM (inactive)
- GI50 (CCRF-CEM): 4.21 µM (inactive)
- GI50 (CAKI-1): 6.87 µM (inactive)
- GI50 (SNB-19): 6.1 µM (inactive)
- GI50 (ACHN): 11.6 µM (inactive)
- GI50 (T47D): 1.77 µM (inactive)
- GI50 (RXF 393): 3.94 µM (inactive)
- GI50 (K562): 1.57 µM (inactive)
- GI50 (DU-145): 14.1 µM (inactive)
- GI50 (HOP-92): 3.53 µM (inactive)
- GI50 (BT-549): 14.8 µM (inactive)
- GI50 (SF-268): 11.4 µM (inactive)
- GI50 (Hs-578T): 15.4 µM (inactive)
- GI50 (HCT-116): 3.6 µM (inactive)
- GI50 (PC-3): 5.98 µM (inactive)
- GI50 (SK-OV-3): 13.8 µM (inactive)
- GI50 (SNB-75): 15 µM (inactive)
- GI50 (HCC 2998): 9.31 µM (inactive)
- GI50 (Malme-3M): 11.2 µM (inactive)
- GI50 (KM12): 5.02 µM (inactive)
